What was measured:
[1] = test system: BIDSU; experiment: Greenhouse test, post-emergence (PO) application, foliar effect; format: in vivo, Bidens subalternans; settings: BIDSU sensitive, (A) 50, (B) 20, mixture 50 + 20 g of AS/ha, 3 weeks after application
Description: (§1) The 1:1 mixture of the two soil types was used specifically for cultivating small-seeded dicotyledonous weed since the standard field soil on its own tends to silt up, which may have an adverse effect on the emergence of small-seeded weeds. The resistances mentioned in the tables were confirmed beforehand in standard monitoring experiments. Nevertheless, the origins examined may have additional, hitherto unconfirmed resistances to various mechanisms of action.
(§2) The pots were then cultivated in a greenhouse (12-16 h light, temperature day 20-22° C., night 15-18° C.) until the time of application. The pots were treated at various BBCH stages of the seeds/plants on a laboratory track sprayer with spray liquors comprising the compositions according to the invention, mixtures of the prior art or the individual components. Application of the active compounds or active compound combinations and wetting agents formulated as WG, WP, EC or otherwise was carried out at the appropriate growth stages of the plants. The amount of water used for spray application was 100-600 l/ha. After the treatment, the plants were returned to the greenhouses and fertilized and watered as required. The pots were cultivated in a greenhouse (12-16 h light, temperature day 20-22° C., night 15-18° C.).
(§3) 3 weeks after the application, the foliar effect was evaluated on a scale of 0-100%:
(§4) 0%=no noticeable effect compared to untreated plants
(§5) 100%=full effect compared to untreated plants
(§6) The following abbreviations were used: • BBCH the BBCH code provides information about the morphological development stage of a plant. Officially, the abbreviation denotes the Biologische Bundesanstalt, Bundessortenamt and CHemische Industrie [Federal Biological Institute for Agriculture and Forestry, Federal Office for Crop Plant Varieties, Chemical Industry]. The range of BBCH 00-10 denotes the germination stages of the seeds until surface penetration. The range of BBCH 11-25 denotes the leaf development stages until stocking (corresponds to the number of tillers or side-shoots). • PE pre-emergence soil application; BBCH of the seeds/plants 00-10 • PO post-emergence application on the green parts of the plants; BBCH of the plants 11-25 • IU soil loamy silt—standard field soil • l/ha liters per hectare • S sensitive—the weed populations are sensitive to the active compounds tested • TSR target-site resistance. The weed populations comprise biotypes having a site-of-action-specific resistance, i.e. the binding site at the site of action is modified as a result of natural mutations in the gene sequence so that the active compounds are no longer able to bind, or bind in an unsatisfactory manner, and are therefore no longer able to act. • NTR non-target-site herbicide resistance; this is differentiated, inter alia, into EMR (Enhanced Metabolic Resistance) (the weed populations comprise biotypes having metabolic resistance, i.e. the plants are capable of metabolizing the active compounds more quickly via enzyme complexes, i.e. the active compounds are degraded more quickly in the plant), into reduced penetration into the plant, reduced translocation in the plant, accelerated excretion. […]

[2] = test system: AMATA; experiment: as above; format: in vivo, Amaranthus rudis; settings: (A) 50, (B) 20, mixture 50 + 20 g of AS/ha, 3 weeks after application
Description: as §1, §2, §3, §4, §5, §6

[3] = test system: AMAPA; experiment: as above; format: in vivo, Amaranthus palmeri; settings: AMAPA resistant - group B (TSR), C1 (TSR) and G (NTR), (A) 50, (B) 20, mixture 50 + 20 g of AS/ha, 3 weeks after application
Description: as §1, §2, §3, §4, §5, §6

[4] = test system: APESV; experiment: as above; format: in vivo, Apera spica-venti; settings: (A) 50, (B) 20, mixture 50 + 20 g of AS/ha, 3 weeks after application
Description: as §1, §2, §3, §4, §5, §6

[5] = test system: ALOMY; experiment: as above; format: in vivo, Alopecurus myosuroides; settings: ALOMY sensitive, (A) 50, (B) 20, mixture 50 + 20 g of AS/ha, 3 weeks after application
Description: as §1, §2, §3, §4, §5, §6

[6] = test system: CHEAL; experiment: as above; format: in vivo, Chenopodium album; settings: (A) 50, (B) 20, mixture 50 + 20 g of AS/ha, 3 weeks after application
Description: as §1, §2, §3, §4, §5, §6

[7] = test system: ERICA; experiment: as above; format: in vivo, Erigeron canadensis; settings: (A) 50, (B) 20, mixture 50 + 20 g of AS/ha, 3 weeks after application
Description: as §1, §2, §3, §4, §5, §6

[8] = test system: KCHSC; experiment: Greenhouse test, pre-emergence (PE) soil application; format: in vivo, Kochia scoparia; set-up: key: % effect: 0 = no effect, 100 = full effect vs untreated; settings: group (B) compound alone, 20 g of AS/ha
Description: as §1, §2, §3, §4, §5, §6

[9] = test system: AMATA; experiment: as above; format: in vivo, Amaranthus rudis; set-up: key: % effect: 0 = no effect, 100 = full effect vs untreated; settings: group (B) compound alone, 20 g of AS/ha
Description: as §1, §2, §3, §4, §5, §6

[10] = test system: EPHHL; experiment: as above; format: in vivo, Euphorbia heterophylla; set-up: key: % effect: 0 = no effect, 100 = full effect vs untreated; settings: group (B) compound alone, 20 g of AS/ha
Description: as §1, §2, §3, §4, §5, §6

[11] = test system: ALOMY; experiment: as above; format: in vivo, Alopecurus myosuroides; settings: group (B) compound alone, 20 g of AS/ha
Description: as §1, §2, §3, §4, §5, §6

[12] = test system: LOLSS; experiment: as above; format: in vivo, Lolium spp.; set-up: key: % effect: 0 = no effect, 100 = full effect vs untreated plants; settings: group (B) compound alone, 20 g of AS/ha
Description: as §1, §2, §3, §4, §5, §6

[13] = test system: CHEAL; experiment: as above; format: in vivo, Chenopodium album; set-up: key: % effect: 0 = no effect, 100 = full effect vs untreated; settings: group (B) compound alone, 20 g of AS/ha
Description: as §1, §2, §3, §4, §5, §6

[14] = test system: ERICA; experiment: as above; format: in vivo, Erigeron canadensis; set-up: key: % effect: 0 = no effect, 100 = full effect vs untreated; settings: group (B) compound alone, 20 g of AS/ha
Description: as §1, §2, §3, §4, §5, §6

[15] = test system: ERIBO; experiment: as above; format: in vivo, Erigeron bonariensis; set-up: key: % effect: 0 = no effect, 100 = full effect vs untreated; settings: group (B) compound alone, 20 g of AS/ha
Description: as §1, §2, §3, §4, §5, §6

[16] = test system: TTTTT (all resistant and sensitive biotypes); experiment: Greenhouse test, PO application, mean over all resistant and sensitive biotypes; format: in vivo; settings: (A) 50, (B) 20, mixture 50 + 20 g of AS/ha; for TTTTT resistant mean (effect): mean of resistant biotypes (n = 17 or n = 15); for TTTTT sensitive mean (effect): mean of sensitive biotypes (n = 11)
Description: as §1, §2, §3, §4, §5, §6

[17] = AMATA resistant - group B (TSR), C1 (TSR)
[18] = APESV resistant - group B (TSR, NTR) and K1/3 (NA)
[19] = CHEAL resistant - group B (TSR), C1 (NA) and G (NTR)
[20] = ERICA resistant - group B (NA) and G (NTR)

Row | SMILES | foliar effect [1] [%] | foliar effect [2, 17] [%] | foliar effect ([2]; AMATA sensitive) [%] | foliar effect [3] [%] | foliar effect [4, 18] [%] | foliar effect ([4]; APESV sensitive) [%] | foliar effect [5] [%] | foliar effect [6, 19] [%] | foliar effect ([6]; CHEAL sensitive) [%] | foliar effect [7, 20] [%] | foliar effect ([7]; ERICA sensitive) [%] | effect on KCHSC resistant - group B (TSR) [8] | effect on KCHSC sensitive [8] | effect on AMATA resistant - group B (TSR), C1 (TSR) [9] | effect on AMATA sensitive [9] | effect on EPHHL resistant - group B (TSR) [10] | effect on EPHHL resistant - group B (TSR) and G (NTR) [10] | effect on EPHHL sensitive [10] | effect on ALOMY sensitive [11] | effect on LOLSS resistant - group G (NTR) [12] | further results
1 | CCOC(=O)c1ccccc1S(=O)(=O)NC(=O)Nc1nc(Cl)cc(OC)n1 [(B4), chlorimuron-ethyl] | 60 | 60 | 30 | 30 | 0 | 100 | 100 | 50 | 60 | 60 | 80 | 0 | 50 | 50 | 60 | 0 | 40 | 60 | 100 | 60 | effect on LOLSS resistant group A (TSR, NTR), B (NTR) and C2 (NA) [12]: 55; effect on LOLSS resistant group A (TSR, NTR), B (TSR, NTR) and C2 (NA) [12]: 10; effect on LOLSS sensitive [12]: 70; effect on CHEAL resistant - group B (TSR), C1 (NA) and G (NTR) [13]: 60; effect on CHEAL sensitive [13]: 90; effect on ERICA resistant - group B (NA) and G (NTR) [14]: 0; effect on ERICA sensitive [14]: 100; effect on ERIBO resistant - group B (NA) and G (NTR) [15]: 0; effect on ERIBO sensitive [15]: 100; TTTTT resistant mean (effect) [16]: 31%; TTTTT sensitive mean (effect) [16]: 72%
2 | COC(=O)c1csc(C)c1S(=O)(=O)NC(=O)n1nc(OC)n(C)c1=O [(B5), thiencarbazone-methyl] | 60 | 40 | 30 | 0 | 0 | 100 | 100 | 70 | 70 | 60 | 70 | 0 | 85 | 40 | 60 | 0 | 0 | 30 | 100 | 70 | effect on LOLSS resistant group A (TSR, NTR), B (NTR) and C2 (NA) [12]: 80; effect on LOLSS resistant group A (TSR, NTR), B (TSR, NTR) and C2 (NA) [12]: 20; effect on LOLSS sensitive [12]: 75; effect on CHEAL resistant - group B (TSR), C1 (NA) and G (NTR) [13]: 60; effect on CHEAL sensitive [13]: 90; effect on ERICA resistant - group B (NA) and G (NTR) [14]: 0; effect on ERICA sensitive [14]: 60; effect on ERIBO resistant - group B (NA) and G (NTR) [15]: 0; effect on ERIBO sensitive [15]: 60; TTTTT resistant mean (effect) [16]: 25%; TTTTT sensitive mean (effect) [16]: 76%

Reference: patent US9439430B2, “Method of controlling resistant harmful plants” (priority 2012, dated 2016)
